Data reported in ChEMBL document CHEMBL1201862, “PubChem BioAssay data set” (2004).
Calls of active or inactive are those of the source.

Tests used:
[1] = mitochondrial function rescue without frataxin homolog – Friedreich's ataxia, plus single-dose screen, dose response (AID 1465); type: functional;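 also: yeast depleted of Yfh1p frataxin homolog grown on glycerol needing respiration; WST-1 tetrazolium dye reduction as measure of cellular dehydrogenase metabolic activity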
[2] = molecular target: T1, Bcl-2-related protein A1 (Mus musculus, UniProt Q07440); type: functional;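 also: confirmatory dose–response counterscreen on Bfl-1, used to check hits from a UBC13 polyubiquitin inhibitor campaign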
T1 sequence (Q07440 whole entry): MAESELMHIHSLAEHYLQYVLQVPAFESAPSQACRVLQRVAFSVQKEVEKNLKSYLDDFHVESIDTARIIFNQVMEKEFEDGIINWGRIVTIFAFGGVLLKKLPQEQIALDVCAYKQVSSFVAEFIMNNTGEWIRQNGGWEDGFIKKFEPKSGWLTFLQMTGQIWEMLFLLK

[3] = molecular target: T2, Ubiquitin-conjugating enzyme E2 N (Homo sapiens, UniProt P61088); type: functional
T2 sequence (P61088 whole entry): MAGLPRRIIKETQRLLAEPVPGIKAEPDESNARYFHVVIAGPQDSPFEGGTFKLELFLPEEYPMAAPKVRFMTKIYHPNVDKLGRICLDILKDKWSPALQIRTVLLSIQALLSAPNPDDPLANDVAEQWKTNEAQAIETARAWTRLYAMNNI

[4] = molecular target: T2, Ubiquitin-conjugating enzyme E2 N; type: functional; remark: listed apart in the source
[5] = molecular target: T3, Bcl-2-like protein 10 (Homo sapiens, UniProt Q9HD36); assay: Concentration-response of Bcl-B inhibitors by biochemical FP with TR3 (AID 1243); type: functional
T3 sequence (Q9HD36 whole entry): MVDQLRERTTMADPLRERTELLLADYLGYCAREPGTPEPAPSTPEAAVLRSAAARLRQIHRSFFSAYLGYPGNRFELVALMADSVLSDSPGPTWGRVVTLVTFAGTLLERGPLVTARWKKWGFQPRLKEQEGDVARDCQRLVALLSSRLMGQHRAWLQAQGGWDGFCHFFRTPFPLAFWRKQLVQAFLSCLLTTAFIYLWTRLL

[6] = NIH-3T3 fibroblast cytotoxicity, dose response, cytotoxicity control, cell-based, fluorescence, Alamar Blue, secondary assay (AID 2327); type: functional;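 also: NIH-3T3 mouse fibroblasts cultured with fluconazole at 8 µg/mL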
[7] = fluconazole-exposed Candida albicans growth modulators – fluorescence, retest, confirmation (AID 2467); type: functional, cell-based
[8] = molecular target: Induced myeloid leukemia cell differentiation protein Mcl-1 (Homo sapiens, UniProt Q07820); assay: blockers of MCL1 binding to BIM peptide – biochemical, fluorescence polarization, BIM-BH3 peptide, 1536-well, dose response (AID 2217)
Sequence of Induced myeloid leukemia cell differentiation protein Mcl-1 (Q07820 whole entry): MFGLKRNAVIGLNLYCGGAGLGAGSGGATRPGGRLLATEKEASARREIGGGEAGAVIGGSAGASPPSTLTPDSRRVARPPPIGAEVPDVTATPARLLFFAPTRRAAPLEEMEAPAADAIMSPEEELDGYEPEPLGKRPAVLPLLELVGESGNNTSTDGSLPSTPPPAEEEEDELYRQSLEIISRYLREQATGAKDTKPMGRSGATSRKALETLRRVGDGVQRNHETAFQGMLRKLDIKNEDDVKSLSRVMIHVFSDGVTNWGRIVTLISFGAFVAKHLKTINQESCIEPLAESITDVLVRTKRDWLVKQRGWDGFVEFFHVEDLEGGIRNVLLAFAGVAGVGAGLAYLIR

[9] = molecular target: Bcl-2-like protein 1 (Homo sapiens, UniProt Q07817); assay: blockers of BCLXL peptide binding – biochemical, fluorescence polarization, 1536-well, selectivity assay for MCL1 inhibitor project, dose response (AID 2218)
Sequence of Bcl-2-like protein 1 (Q07817 whole entry): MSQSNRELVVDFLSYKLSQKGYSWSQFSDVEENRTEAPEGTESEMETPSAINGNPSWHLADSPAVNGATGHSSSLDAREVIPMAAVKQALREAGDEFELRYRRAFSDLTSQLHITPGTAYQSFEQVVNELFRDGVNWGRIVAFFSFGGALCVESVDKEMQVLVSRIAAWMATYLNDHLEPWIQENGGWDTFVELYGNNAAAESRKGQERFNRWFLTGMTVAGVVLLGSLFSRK

[10] = molecular target: T4, Hexokinase HKDC1 (Homo sapiens, UniProt Q2TB90); assay: inhibition of HKDC1 glucose phosphorylation – biochemical, W721R variant, dose response (AID 504729); type: functional
T4 sequence (Q2TB90 whole entry): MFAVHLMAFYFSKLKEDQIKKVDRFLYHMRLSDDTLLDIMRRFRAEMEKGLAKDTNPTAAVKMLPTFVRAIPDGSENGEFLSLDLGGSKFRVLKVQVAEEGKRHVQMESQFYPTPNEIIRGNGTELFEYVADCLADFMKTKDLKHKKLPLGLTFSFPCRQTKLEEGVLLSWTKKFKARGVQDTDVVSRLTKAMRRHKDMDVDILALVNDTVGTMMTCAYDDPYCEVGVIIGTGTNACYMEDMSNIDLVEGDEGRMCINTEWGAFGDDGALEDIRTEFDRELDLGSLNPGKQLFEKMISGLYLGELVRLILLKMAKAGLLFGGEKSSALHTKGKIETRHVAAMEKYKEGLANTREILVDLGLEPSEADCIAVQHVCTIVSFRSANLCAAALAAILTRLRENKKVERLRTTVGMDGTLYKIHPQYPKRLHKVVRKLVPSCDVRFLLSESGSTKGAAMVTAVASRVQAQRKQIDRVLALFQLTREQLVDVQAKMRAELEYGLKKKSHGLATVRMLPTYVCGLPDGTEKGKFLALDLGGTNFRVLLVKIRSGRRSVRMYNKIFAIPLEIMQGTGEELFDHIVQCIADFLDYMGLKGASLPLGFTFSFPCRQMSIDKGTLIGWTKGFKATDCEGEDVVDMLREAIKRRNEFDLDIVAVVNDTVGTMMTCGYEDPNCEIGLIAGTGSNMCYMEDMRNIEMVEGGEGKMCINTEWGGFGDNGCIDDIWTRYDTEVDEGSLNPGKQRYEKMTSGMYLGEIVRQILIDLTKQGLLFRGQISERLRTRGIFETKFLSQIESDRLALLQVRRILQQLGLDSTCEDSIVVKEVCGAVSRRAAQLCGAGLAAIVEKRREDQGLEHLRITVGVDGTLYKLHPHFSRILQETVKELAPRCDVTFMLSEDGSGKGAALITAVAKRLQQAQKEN

[11] = molecular target: Heat shock protein HSP 90-alpha (Homo sapiens, UniProt P07900); type: functional, organism-based
[12] = Luminescent dose response cell-based high throughput screening assay for inhibitors of the Janus kinase 2 mutant JAK2V617F. [Related pubchem assays: 1446 (Primary screen.), 1521 (Confirmation assay.), 1486 (Counter screen.)]; type: functional
[13] = molecular target: Paired box protein Pax-8 (Homo sapiens, UniProt Q06710); assay: PAX8 transcriptional activity inhibition in RMG-I – RMG-I cells, luciferase, cherry-pick, dose response (AID 687027); type: functional, cell-based;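 also: luciferase reporter driven by Pax8 target thyroperoxidase promoter measured by SteadyGlo luminescence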
Sequence of Paired box protein Pax-8 (Q06710 whole entry): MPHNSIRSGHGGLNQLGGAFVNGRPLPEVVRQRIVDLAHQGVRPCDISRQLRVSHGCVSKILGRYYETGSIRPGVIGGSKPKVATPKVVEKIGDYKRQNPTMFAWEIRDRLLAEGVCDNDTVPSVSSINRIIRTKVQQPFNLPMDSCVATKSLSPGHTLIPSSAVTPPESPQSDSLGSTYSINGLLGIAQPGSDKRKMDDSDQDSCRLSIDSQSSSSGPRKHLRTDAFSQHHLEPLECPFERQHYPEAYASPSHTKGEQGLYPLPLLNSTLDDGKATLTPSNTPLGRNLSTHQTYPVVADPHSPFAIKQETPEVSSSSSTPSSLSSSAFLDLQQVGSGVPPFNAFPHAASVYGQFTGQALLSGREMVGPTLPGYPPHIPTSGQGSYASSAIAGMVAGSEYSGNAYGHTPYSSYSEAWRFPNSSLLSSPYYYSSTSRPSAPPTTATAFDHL

[14] = general cell-killing toxicity readout – plate reader, dry powder samples, cytotoxicity control for PAX8 inhibitor project, dose response (AID 743021); type: functional, cell-based

COc1ccc(C(=O)NC(=S)NNC(=O)c2ccc(NC(C)=O)cc2)cc1Br
EC50 [1]: > 100 µM (active)
IC50 [2]: > 20 µM (inactive)
IC50 [3]: 18.1 µM (active)
IC50 [4]: 18.3 µM (active)

CCOc1ccc(/C=C(/NC(=O)c2ccc(C)cc2)C(=O)NCCO)cc1
EC50 [5]: 13.2 µM (active)

Cc1ccc(/N=C/c2cc(Cc3ccccc3Cl)cc([N+](=O)[O-])c2O)c(O)c1
EC50 [6]: 11.3 µM (active)
EC50 [7]: 1.78 µM (active)
IC50 [8]: 9.13 µM (active)
IC50 [9]: 7.22 µM (active)
IC50 [10]: 28.5 µM (inactive)
AC50 [11]: 1.61 µM (active)

O=C(CCl)/N=c1\sccn1Cc1cccc2ccccc12
IC50 [12]: 224 nM (active)
AC50 [13]: 572 nM (active)
AC50 [14]: 1.66 µM (active)
